Source: patent US10738281B2, “Reprogramming cells” (The Scripps Research Institute, priority 2010, dated 2020)

How the values were obtained:
[1] = test system: Human Umbilical Vein Endothelial Cells (HUVECs); experiment: Reprogramming of four factor-transduced HUVECs using metabolism modulating compounds; conditions: four factor (Klf, Sox, Myc, Oct)-transduced HUVECs, 20,000 cells per well, three weeks; DNP 1 μM, NOG 1 μM, QC 1 μM, OA 10 μM, F2,6P 10 mM
NHEKs = experiment: Lactate production in the medium as index of glycolysis (Lactate Assay Kit); conditions: NHEKs treated 8 d with PS48, PS48 and UCN-01, or PS48 and 2-DG
[2] = test system: Neonatal Human Epidermal Keratinocytes (NHEKs); experiment: Reprogramming of transduced NHEKs to iPSCs, TRA-1-81 positive colonies; conditions: for reprogramming of NHEKs, TRA-1-81 positive colonies (in words): three factor (Klf, Sox, Oct)-transduced NHEKs, 100,000 cells per well, four weeks, 2-DG 10 mM
[3] = test system: GLUT1, HK2, PFK1 and LDHA; experiment: Expression of key glycolytic genes after treatment; conditions: PS48 treatment

Compound | effect on reprogramming, TRA-1-81 positive colonies (in words) [1] | glycolysis, lactate production in the medium (in words) (NHEKs) | reprogramming of NHEKs, TRA-1-81 positive colonies (in words) [2] | other results
O=[N+]([O-])c1ccc(O)c([N+](=O)[O-])c1 [2,4-dinitrophenol] | enhance reprogramming | – | – | –
O=CC[C@@H](O)[C@H](O)[C@H](O)CO [2-Deoxy-D-glucose] | – | inhibited glycolysis | inhibited reprogramming process | –
O=P(O)(O)OC[C@H]1O[C@@](CO)(OP(=O)(O)O)[C@@H](O)[C@@H]1O [Fructose 2,6-bisphosphate] | corresponding consistent effects on reprogramming | – | – | –
O=C(O)CNC(=O)C(=O)O [N-oxalylglycine] | enhance reprogramming | – | – | –
CCCC(=O)[O-].[Na+] [NaB, sodium butyrate] | – | – | – | generation of iPSCs under OK condition (in words) ([2]; NHEKs, OCT4 + KLF4, 0.25 mM NaB compared with 0.5 mM VPA): much more reliable and efficient than the previously reported 0.5 mM VPA
O=C(O)/C=C(/CCc1ccc(Cl)cc1)c1ccccc1 [PS48, (Z)-5-(4-Chlorophenyl)-3-phenylpent-2-enoic acid] | – | facilitated/activated a metabolic switch to glycolysis | enhanced reprogramming | expression of key glycolytic genes GLUT1, HK2, PFK1 and LDHA (in words) [3]: up-regulated; enhancement of reprogramming efficiency ([2]; NHEKs transduced with OK (OCT4 + KLF4), treated with 0.5 μM PD0325901 and 0.5 μM A-83-01): about fifteen
O=c1c(O)c(-c2ccc(O)c(O)c2)oc2cc(O)cc(O)c12 [Quercetin, 3,3′,4′,5,7-pentahydroxyflavone] | corresponding consistent effects on reprogramming | – | – | –
CN[C@@H]1C[C@H]2O[C@@](C)([C@@H]1OC)n1c3ccccc3c3c4c(c5c6ccccc6n2c5c31)C(=O)N[C@@H]4O [UCN-01] | – | inhibited glycolysis | inhibited reprogramming process | –
O=C(O)C(=O)O [oxalate] | inhibit reprogramming | – | – | –
